Source: patent US20260365696A1, “INHIBITORS OF PTP1B / NCK1 INTERACTION AND METHODS OF MAKING AND USING SAME” (Radella Pharmaceuticals LLC, priority 2023, published 2026)

Experiments:
SH3-2 domain of NCK1 = target: T1, SH3-2 domain of NCK1 (Homo sapiens, UniProt P16333); assay: Isothermal titration calorimetry (ITC) binding to NCK1 SH3-2 domain
T1 construct: To amplify the NCK1 SH3-2 domain, the primers; 10xHis tag with TEV site (vector pSF-OXB20-NH2-10HIS) (N, cleaved yes); made in house; host or cells: E. coli C43(DE3)
Outline: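 Measured at 25 °C, pH 8.0 (10 mM sodium buffer, sodium chloride), by calorimetric titration of 3-7.5 mM peptide into 0.125-0.3 mM recombinant NCK1 SH3-2 domain with His tag removed, using 20 injections. Affinities are means of three experiments, fitted with stoichiometry 0.8-1.2.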

[1] = 28-day pharmacodynamic and liver toxicity study in C57BL/6 mice; format: in vivo, mouse; conditions: 28 days; for body weight: 15 or 30 mg/kg IP daily; for signs of physiological or hepatic toxicity: 15 or 30 mg/kg daily IP
Excerpt: Animals: C57BL/6 male mice (−3 months) were purchased from Charles River, UK. All animals were housed and tested following European (Directive on the Protection of Animals used for Scientific Purposes, 2010/63/EU) and UK Home Office regulations. Experiments were approved by the University Ethics Board and carried out in accordance with the Animal (Scientific Procedures) Act 1986 and following ARRIVE guidelines.
Treatments: Mice were randomized in to the five experimental groups: Control (n=9); MD17, 15 mg/kg (n=6); MD17, 30 mg/kg (n=6); MD20, 15 mg/kg (n=6); and MD20, 30 mg/kg (n=6). MD17 and MD20 compounds were administered to mice once daily via intraperitoneal (IP) injection for a period of 28 consecutive days at a dose of either 15 or 30 mg/kg. Peptides were kept in −20 °C and dissolved in sterile phosphate buffered saline (PBS) freshly every day before the injection. Control mice received a daily PBS injection. Three mice died during the study, and the final number of animals in each group was: Control (n=9); MD17, 15 mg/kg (n=5); MD17, 30 mg/kg, (n=6); MD20, 15 mg/kg (n=5); and MD20, 30 mg/kg (n=5). All mice had ad libitum access to food and water and were kept in a 12 h light/dark cycle.
Bodyweights and body mass composition: body weights were recorded during the study and fat and lean mass composition was analysed using an EchoMRI scanner (EchoMedical Systems, Houston, TX, U.S.A.).
Fasted glucose: All animals were 5 h-fasted and tail glucose measured using an AlphaTRAK 2 glucose strips and glucometer (Abbot, UK).
Serum assays: Trunk-derived blood was collected from 5 h-fasted mice in to serum separator microtubes and kept at −80 °C. Serum was used for insulin (#EZRMI-13K, Merck), leptin (#90030, Crystal Chem), free fatty acids (FFA; #mak044, Sigma-Aldrich), alanine and aspartate aminotransferases (ALT and AST; #ab105134 and #ab105135, Abcam) analyses.
Statistical analyses: Data were expressed as means±SEM and were analysed using one- or two-way ANOVA with Bonferroni post hoc tests, as appropriate. GraphPad Prism (V8, GraphPad Software, Inc., San Diego, California, USA) was used for analyses. P-values <0.05 were considered significant.

Row | Substance | Kd (SH3-2 domain of NCK1; Alanine scanning of the MD20 6-mer peptide, ITC, 25 °C, pH 8.0) | Kd (SH3-2 domain of NCK1; Peptide truncation analysis, ITC, 25 °C, pH 8.0) | Kd (SH3-2 domain of NCK1; ability to bind SH3-2 domain of NCK1, stated in text) | % change in fat mass ([1]; 30 mg/kg IP daily, vs control) | percentage change in body weight pre- versus post-treatment ([1]; 30 mg/kg IP daily, vs control) | body weight [1] | signs of physiological or hepatic toxicity [1] | Kd (SH3-2 domain of NCK1; Alanine scanning of the MD17 15-mer peptide, ITC, 25 °C, pH 8.0)
1 | Ac-PRPPKR-NH2 [MD20, Ac-PRPPKR-NH2] | ≤ 300 µM | ≤ 300 µM | < 193 µM | decreased | significant decrease in % change | No statistically significant differences | did not induce any obvious signs of physiological or hepatic toxicity | –
2 | Ac-PPPEHIPPPPRPPKR-NH2 [MD17] | – | – | – | – | – | No statistically significant differences | did not induce any obvious signs of physiological or hepatic toxicity | ≤ 300 µM
